# Laboratory results from patent publication US20100003209A1, “Odor Blocking Water-Absorbent Compositions” (BASF SE, priority 2006, published 2010).
# Read-outs that look alike come from different tables or passages of the source.
# Key:
# urease (from jack beans) = urease (from jack beans) (Canavalia ensiformis, UniProt P07374); conditions: 23° C.
# Protocol: The measurements should be carried out, unless otherwise stated, at an ambient temperature of 23±2° C. and a relative humidity of 50±10%. The water-absorbing polymers are thoroughly commixed prior to the measurement.
# To determine the odor-preventing effect, 2 g of each of the compositions produced above were placed in a 100 ml Erlenmeyer flask and admixed with a freshly prepared solution of 30 mg of urease (from jack beans; lyophilized 5 U/mg for urea assay in serum; Merck KGaA, Germany) and 50 ml of 0.9% sodium chloride solution, the sodium chloride solution containing 8.56 g/l of urea, and sealed with a stopper having an internal diffusion tubelet (Dräger® Röhrchen; ammonia 20/a-D, 20 to 1500 ppm*h). The measurement was discontinued after 6 hours. The test was carried out at 23° C.
# [1] = Centrifuge Retention Capacity (CRC), EDANA test method No. 441.2-02; format: physicochemical
# [2] = 0.0500% by weight in composition with polymer from Example 1 (55 mol % neutralized)
# [3] = 0.2000% by weight in composition with polymer from Example 1 (55 mol % neutralized)
# Sequence of urease (from jack beans) (P07374 whole entry, looked up): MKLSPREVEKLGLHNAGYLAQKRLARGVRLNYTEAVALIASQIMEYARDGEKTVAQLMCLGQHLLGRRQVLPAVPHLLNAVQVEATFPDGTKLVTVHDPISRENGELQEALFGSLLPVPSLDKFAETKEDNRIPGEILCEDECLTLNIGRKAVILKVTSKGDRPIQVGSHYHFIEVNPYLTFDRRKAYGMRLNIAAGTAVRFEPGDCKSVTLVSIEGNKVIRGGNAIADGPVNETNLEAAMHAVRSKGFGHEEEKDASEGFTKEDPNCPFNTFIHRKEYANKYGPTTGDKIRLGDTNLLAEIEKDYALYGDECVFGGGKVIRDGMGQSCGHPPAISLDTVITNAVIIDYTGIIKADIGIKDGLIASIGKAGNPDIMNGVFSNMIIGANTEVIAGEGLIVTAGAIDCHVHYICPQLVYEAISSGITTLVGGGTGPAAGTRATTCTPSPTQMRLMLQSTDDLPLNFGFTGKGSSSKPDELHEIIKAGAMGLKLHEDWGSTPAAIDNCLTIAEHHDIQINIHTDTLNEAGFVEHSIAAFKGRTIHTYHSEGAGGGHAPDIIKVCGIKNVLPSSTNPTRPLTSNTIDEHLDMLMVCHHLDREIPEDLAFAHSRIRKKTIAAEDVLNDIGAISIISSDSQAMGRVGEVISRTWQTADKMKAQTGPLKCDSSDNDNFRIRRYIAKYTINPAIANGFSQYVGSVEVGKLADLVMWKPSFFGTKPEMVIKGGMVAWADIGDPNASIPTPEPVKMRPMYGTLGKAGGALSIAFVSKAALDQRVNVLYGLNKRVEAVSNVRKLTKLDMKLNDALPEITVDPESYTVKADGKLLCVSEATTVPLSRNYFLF
structure (smiles),measurement,setting,value
Oc1ccc(O)cc1 [hydroquinone],NH3 after 6 hours,"urease (from jack beans); 0.0025% by weight in composition, degree of neutralization 55 mol %",91 ppm
same,NH3 after 6 hours,"urease (from jack beans); 0.0025% by weight in composition, degree of neutralization 60 mol %",182 ppm
same,NH3 after 6 hours,"urease (from jack beans); 0.0025% by weight in composition, degree of neutralization 72 mol %",800 ppm
same,NH3 after 6 hours,"urease (from jack beans); 0.0050% by weight in composition, degree of neutralization 55 mol %",58 ppm
same,NH3 after 6 hours,"urease (from jack beans); 0.0050% by weight in composition, degree of neutralization 60 mol %",78 ppm
same,NH3 after 6 hours,"urease (from jack beans); 0.0050% by weight in composition, degree of neutralization 72 mol %",381 ppm
same,NH3 after 6 hours,"urease (from jack beans); 0.0100% by weight in composition, degree of neutralization 55 mol %",29 ppm
same,NH3 after 6 hours,"urease (from jack beans); 0.0100% by weight in composition, degree of neutralization 60 mol %",45 ppm
same,NH3 after 6 hours,"urease (from jack beans); 0.0100% by weight in composition, degree of neutralization 72 mol %",214 ppm
same,NH3 after 6 hours,"urease (from jack beans); 0.0200% by weight in composition, degree of neutralization 55 mol %",0 ppm
same,NH3 after 6 hours,"urease (from jack beans); 0.0200% by weight in composition, degree of neutralization 60 mol %",10 ppm
same,NH3 after 6 hours,"urease (from jack beans); 0.0200% by weight in composition, degree of neutralization 72 mol %",63 ppm
same,NH3 after 6 hours,"urease (from jack beans); 0.0500% by weight in composition, degree of neutralization 55 mol %",0 ppm
same,NH3 after 6 hours,"urease (from jack beans); 0.0500% by weight in composition, degree of neutralization 60 mol %",0 ppm
same,NH3 after 6 hours,"urease (from jack beans); 0.0500% by weight in composition, degree of neutralization 72 mol %",15 ppm
same,NH3 after 6 hours,"urease (from jack beans); 0.2000% by weight in composition, degree of neutralization 55 mol %",0 ppm
same,NH3 after 6 hours,"urease (from jack beans); 0.2000% by weight in composition, degree of neutralization 60 mol %",0 ppm
same,NH3 after 6 hours,"urease (from jack beans); 0.2000% by weight in composition, degree of neutralization 72 mol %",0 ppm
same,NH3 after 6 hours,"urease (from jack beans); 1.0000% by weight in composition, degree of neutralization 55 mol %",0 ppm
same,NH3 after 6 hours,"urease (from jack beans); 1.0000% by weight in composition, degree of neutralization 60 mol %",0 ppm
same,NH3 after 6 hours,"urease (from jack beans); 1.0000% by weight in composition, degree of neutralization 72 mol %",0 ppm
same,CRC,[1]; 0.0050% by weight in composition with polymer from Example 1 (55 mol % neutralized),28.5 g/g
same,CRC,[1]; [2],28.7 g/g
same,CRC,[1]; [3],25.3 g/g
same,CRC,[1]; 1.0000% by weight in composition with polymer from Example 1 (55 mol % neutralized),23.4 g/g
[F-].[Na+] [sodium fluoride],CRC,[1]; [2],29.1 g/g
same,CRC,[1]; 0.0900% by weight in composition with polymer from Example 1 (55 mol % neutralized),28.5 g/g
same,CRC,[1]; [3],24.1 g/g
